Data: US11198869B2, “Angelman syndrome antisense treatment” (The Texas A&M University System, priority 2017, dated 2021)
pIC50: −log10 of the molar value. Where two headings read alike, the source gives them in different places.

Columns and labels:
UBE3A-AS [1] = test: UBE3A-AS steady state RNA (TaqMan qRT-PCR) in GABAergic iPSC-derived neurons; type: cell-based, human; conditions: for IC50 Ratio relative to ASO-4.4.PS.L: equivalence; for IC50 Ratio relative to ASO-4.4.PS.L / Limit Exceeded (equivalence of IC50 relative to ASO-4.4.PS.L): two one-sided tests; for Relative Potency: relative to ASO-4.4.PS.L = 1
UBE3A-AS [2] = test: as above; type: cell-based, human; conditions: for 3 μM (Mean), Emax, normalized UBE3A-AS RNA level relative to vehicle / pIC50: treated 14 DIV, RNA 20 DIV; for IC50 / Relative Potency / pIC50: optimized ASOs; for IC50: 14 DIV to 20 DIV, read-out: IC50 (M), UBE3A-AS; for IC50 / Relative Potency: parallel model; for IC50 / pIC50: 3-parameter logistic; for Relative Potency: relative to ASO 4.S = 1; for pIC50: 5-point dose curve 30 nM-3 μM, full model, read-out: IC50 Estimate, UBE3A-AS
Protocol: Human-specific ASOs were then designed to target this region, which included four ASOs targeting non-polymorphic regions in human and regions conserved (100%) with macaque (Rhesus and Cynomolgus) (Table 7 and FIG. 3A). Human induced pluripotent stem cell (iPSC) neural precursor cells were differentiated into GABAergic neurons for 14 DIV and then treated with a control ASO [ASO-C (10 μM, n=3)], Topotecan [Topo (1 μM, n=2)], and six ASOs targeting UBE3A-AS [ASO-1, ASO-2, ASO-3, ASO-4, ASO-5, and ASO-6 (10 μM, n=3)]. Additionally, an ASO targeting an intronic region downstream of SNORD109B was included (ASO-7). Six days post-treatment (20 DIV), RNA was isolated from the neurons and the steady state RNA levels of UBE3A-AS and UBE3A were estimated relative to the control treatment (FIG. 3B).
The potency of ASO-4 was further examined given its effect on UBE3A-AS RNA levels. GABAergic iPSC-derived neurons were treated at 14 DIV with a 10-point ½ log dose response curve of ASO-4 and Topotecan, as a positive control and for comparisons between treatment [1 nM, 3 nM, 10 nM, 30 nM, 100 nM, 300 nM, 1 μM, 3 μM, 10 μM, and 30 μM (ASO-4, n=6; Topotecan, n=2)]. At 20 DIV, the steady state RNA levels of UBE3A-AS were measured and dose response curves fitted to estimate the IC50 and Emax (i.e., maximum UBE3A-AS inhibition) (Table 9 and FIG. 4A). […]
Additional ASOs targeting the 5′-end of UBE3A-AS were then designed to optimize the target sequences of ASO-4 (ASO-4.1, ASO-4.2, ASO-4.3, and ASO-4.4) as well as two other target regions, ASO-3 (ASO-3.1 and ASO-3.2) and ASO-6 (ASO-6.1) (Table 11). Additionally, ASO-4 was manufactured at two different vendors for comparative purposes (ASO-4.S, Sigma; ASO-4.I, Integrated DNA Technologies). Human iPSC-derived neurons (GABAergic) were treated at 14 DIV with a […] ½ log dose curve of ASO-3.1, ASO-3.2, ASO-4.S, ASO-4.I, ASO-4.1, ASO-4.2, ASO-4.3, ASO-4.4, and ASO-6.1 [30 nM, 100 nM, 300 nM, 1 μM (n=6)]. At 20 DIV, the IC50 and Emax of each ASO was estimated as described above (FIG. 5A-B and Table 12). […] No significant difference was observed between ASO-4.S and ASO-4.I.
The potency of ASO-4 and ASO-6.1 was further examined in iPSC-derived neurons at a later time point in differentiation. GABAergic iPSC-derived neurons were treated at 29 DIV with a 10-point ½ log dose response curve of ASO-4 and ASO-6.1 [1 nM, 3 nM, 10 nM, 30 nM, 100 nM, 300 nM, 1 μM, 3 μM, 10 μM, and 30 μM (n=3)]. At 35 DIV, the IC50 and Emax of each ASO was estimated as described above (FIG. 5C-D and Table 14). The dose response curves of ASO-4 and ASO-6.1 were not similar (Parallelism test: F(3,172)=22.7, p<0.0001).
GABAergic and glutamatergic induced pluripotent stem cell (iPSC) derived neural precursor cells (NRC-100-010-001 and GNC-301-030-001, Cellular Dynamics International, Madison Wis.) were differentiated into neurons according to the manufactures protocol. Briefly, neural precursor cells were thawed and resuspended in chemically defined medium and added to sterile-culture plates coated with poly-D-lysine and laminin. The medium was replaced 24 hr after plating and then one-half of the medium was replaced every 3-5 days afterwards.
For cultured iPSC-derived neurons, RNA isolation and cDNA synthesis were performed using the Cell-to-CT kit (Thermo Fisher Scientific) in a lysate volume of 55 μl.
The steady state RNA levels of target transcripts were measured using TaqMan quantitative reverse-transcription PCR (qRT-PCR) assays. Total reaction volume was 10 uL, including 2 μl of cDNA, 1× Gene Expression Master mix (4369016, Thermo Fisher Scientific, Waltham, Mass.), and 1× TaqMan primer assay (Thermo Fisher Scientific). Cycling conditions were 2 minutes at 50° C., 10 minutes at 95° C., and 40 cycles of 15 seconds at 95° C. and 1 minute at 60° C., with readings taken at the 60° C. step of every cycle. […]

[3] = Cluster 1 ASOs, 18 DIV to 24 DIV, parallel model, 4 Parameter logistic (Hill)
[4] = candidate ASOs, 18 DIV to 24 DIV
[5] = candidate ASOs, 18 DIV to 24 DIV, 4-parameter logistic (Hill)
[6] = candidate ASOs, treated 18 DIV, RNA 24 DIV, 10-point dose curve, n=2, full model, 4-parameter logistic (Hill)

Substance | IC50 (UBE3A-AS [1]; [3]) [nM] | IC50 Ratio relative to ASO-4.4.PS.L (UBE3A-AS [1]; Cluster 1 ASOs) | Relative Potency (UBE3A-AS [1]; Cluster 1 ASOs, parallel model) | Limit Exceeded (equivalence of IC50 relative to ASO-4.4.PS.L) (UBE3A-AS [1]; Cluster 1 ASOs) | 30 μM (Mean), normalized UBE3A-AS RNA level relative to vehicle (UBE3A-AS [1]; [4]) | Emax (normalized UBE3A-AS RNA level relative to vehicle) (UBE3A-AS [1]; [5]) | IC50 (UBE3A-AS [1]; [6]) [nM] | 3 μM (Mean), Emax, normalized UBE3A-AS RNA level relative to vehicle (UBE3A-AS [2]) | IC50 (UBE3A-AS [2]) [M] | Relative Potency (UBE3A-AS [2]) | pIC50 (UBE3A-AS [2])
5mC^M*T^M*G^M*G^M*t*g*t*c*a*a*c*a*a*g*5mC^M*5mC^M*A^M*A^M [ASO-6.1.PS.M] | 153 | 0.90 | 0.3 | equivalent IC50 values | 0.02 | −0.05 | 147 |  |  |  | 
5mC^M*T^M*G^M*G^M-t*g*t*c*a*a*c*a*a*g-5mC^M*5mC^M*A^M*A^M [ASO-6.1.PO-1.M] | 177 | 0.90 | 0.3 | equivalent IC50 values | 0.04 | −0.02 | 166 |  |  |  | 
5mC^M*T^M-G^M*G^M-t*g-t*c-a*a-c*a-a*g-5mC^M*5mC^M-A^M*A^M [ASO-6.1.PO-2.M] |  |  |  |  | 0.3 | −1.2 | 269000 |  |  |  | 
A^O*G^O*A^O*A^O*t*g*g*c*a*c*a*t*c*t*C^O*U^O*U^O*G^O [ASO-4.4] |  |  |  |  |  |  |  | 0.44 | 2.04e-06 | 0.73 | 5.68
A^O*G^O*A^O*A^O*t*g*g*c*a*c*a*t*c*t*C^O*U^O*U^O*G^O*G^O [ASO-4.2] |  |  |  |  |  |  |  | 0.31 | 1.24e-06 | 1.21 | 5.97
A^O*U^O*A^O*G^O*A^O*a*t*g*g*c*a*c*a*t*c*U^O*C^O*U^O*U^O*G^O [ASO-4.1] |  |  |  |  |  |  |  | 0.42 |  |  | 5.64
C^O*U^O*G^O*G^O*t*g*t*c*a*a*c*a*a*g*C^O*C^O*A^O*A^o [ASO-6.1.PS.O] | 432 | 0.83 | 0.1 | Lower | 0.05 | −0.2 | 532 |  |  |  | 
C^O*U^O-G^O*G^O-t*g-t*c-a*a-c*a-a*g-C^O*C^O-A^O*A^o [ASO-6.1.PO-2.O] |  |  |  |  | 0.3 |  |  |  |  |  | 
G^O*U^O*U^O*G^O*a*g*t*g*g*t*g*t*c*a*G^O*U^O*U^O*U^O*C^O [ASO-3.1] |  |  |  |  |  |  |  | 0.51 | 2.81e-06 | 0.53 | 5.53
T^L*G^L*G^L*t*g*t*c*a*a*c*a*a*g*5mC^L*5mC^L*A^L*A^L [ASO-6.1.PS.L] | 281 | 0.85 | 0.2 | Lower | 0.04 | −0.07 | 362 |  |  |  | 
T^L*G^L*G^L-t*g*t*c*a*a*c*a*a*g-5mC^L*5mC^L*A^L*A^L [ASO-6.1.PO-1.L] |  |  |  |  | 0.2 | 0.03 | 1890 |  |  |  | 
T^L*G^L-G^L*t-g*t-c*a-a*c-a*a-g*5mC^L-5mC^L-A^L*A^L [ASO-6.1.PO-2.L] |  |  |  |  | 0.4 | 0.3 | 734 |  |  |  | 
T^M*A^M*G^M*A^M*A^M*t*g*g*c*a*c*a*t*c*t*5mC^M*T^M*T^M*G^M*G^M [ASO-4.0.PS.M] | 262 | 0.86 | 0.2 | Lower | 0.05 | 0.05 | 300 |  |  |  | 
T^M*A^M*G^M*A^M*A^M-t*g*g*c*a*c*a*t*c*t-5mC^M*T^M*T^M*G^M*G^M [ASO-4.0.PO-1.M] | 278 | 0.87 | 0.2 | Lower | 0.05 | 0.02 | 278 |  |  |  | 
T^M*A^M-G^M*A^M-A^M*t-g*g-c*a-c*a-t*c-t*5mC^M*T^M*T^M-G^M*G^M [ASO-4.0.PO-2.M] |  |  |  |  | 0.5 |  |  |  |  |  | 
U^O*A^O*G^O*A^O*A^O*t*g*g*c*a*c*a*t*c*t*C^O*U^O*U^O*G^O*G^o [ASO-4.0.PS.O] |  |  |  |  | 0.1 | 0.06 | 1270 |  |  |  | 
U^O*A^O*G^O*A^O*A^O-t*g*g*c*a*c*a*t*c*t-C^O*U^O*U^O*G^O*G^o [ASO-4.0.PO-1.O] |  |  |  |  | 0.1 | 0.05 | 766 |  |  |  | 
U^O*A^O*G^O*A^O*a*t*g*g*c*a*c*a*t*c*U^O*C^O*U^O*U^O*G^O [ASO-4.3] |  |  |  |  |  |  |  | 0.40 | 1.96e-06 | 0.76 | 5.69
U^O*U^O*G^O*A^O*g*t*g*g*t*g*t*c*a*g*U^O*U^O*U^O*C^O [ASO-3.2] |  |  |  |  |  |  |  | 0.44 | 1.85e-06 | 0.81 | 5.73
